According to patent US20250313900A1, “COMPOSITIONS AND THERAPEUTIC AGENTS FOR MODULATING INFLAMMATORY RESPONSES ON BOTH TUMOR AND IMMUNE CELLS” (THE METHODIST HOSPITAL, priority 2022, published 2025):
Like-named read-outs stand apart in the source and are kept apart here.

Experiments:
vinculin = test: Western blots of vinculin expression, 4T1 tumor model; type: cell-based; conditions: CMTM4 knockout, 1 mm, 0, 3, 6 and 24 hours
Protocol: 1 mm of C10H14O3 (4-Ethoxy-3-methoxybenzyl alcohol)(28A), C9H16N2O6 (Tetrahydrouridine)(28B), or C10H14O3 (5-tert-butyl-2-methyl-3-furoic acid)(28C) was administered to control mice or CMTM4 knockouts and expression measured after 0, 3, 6, and 24 hours.

p-Akt/p-mTOR = p-Akt/p-mTOR (compound screening); type: cell-based
Protocol: (§1) Protein samples from cells were separated on sodium dodecyl sulfate (SDS)-polyacrylamide gels and transferred to PVDF membranes. The membranes were blocked in 4% skim milk solution, incubated with the appropriate antibody, and subsequently incubated with a secondary antibody conjugated with horseradish peroxidase. The antibodies for p-NF-κBp65, NF-κBp65. EGFR, PTEN, Akt, p-Akt, mTOR, p-mTOR, S6, p-S6, Rab4, Rab5a, Rab11, Tubulin, actin, vinculin, and CMTM4 were purchased from Cell Signaling Technology, Inc. (Beverly, MA) and the antibody for Rab21 was purchased from Santa Cruz Biotechnology. The immunoreactive bands were visualized using the ECL system (Thermo Scientific). Control and CMTM4 KD cell lysates were analyzed using the proteome profiler mouse phospho-receptor tyrosine kinase array kit (R&D Systems) following the manufacturer's instructions. For immunoprecipitation, Dynabeads His-Tag isolation and pulldown kit (Life Technologies) was used. The pull-down samples were subjected to immunoblot assays.

glycolysis = test: Test glycolysis (compound screening); type: cell-based
Description: (§2) The initial screening was followed by the following assessments: 1) MHC 11 assay by high-throughput flow cytometry. 2) IL-6 production. 3) NF-kB promoter activity using CMTM4-expressing NF-kB/secreted embryonic alkaline phosphatase (SEAP) reporter stable cell lines using both LLC and 4T1 cells. 4) Inhibition of EGF-mediated G-CSF secretion from tumor cells. 5) Test glycolysis (FIG. 13).

IL-6 = IL-6 production (compound screening); type: cell-based
Description: as §2

CMTM4 [1] = biological target: T1, CMTM4 (Mus musculus, UniProt Q8CJ61); test: CMTM4 level (compound screening); type: cell-based
T1 construct: endogenous in cells; LLC and 4T1 are the only lines named in the screen
T1 sequence (Q8CJ61 whole entry): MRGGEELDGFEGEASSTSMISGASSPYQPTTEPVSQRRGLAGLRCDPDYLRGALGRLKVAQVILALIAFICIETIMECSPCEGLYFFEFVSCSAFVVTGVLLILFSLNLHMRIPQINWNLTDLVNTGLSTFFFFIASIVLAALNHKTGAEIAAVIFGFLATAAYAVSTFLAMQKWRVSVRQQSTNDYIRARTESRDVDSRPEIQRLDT
Protocol: as §1

CMTM4 [2] = test: Western blot of CMTM4 protein in HCC827 CT cells; type: cell-based, human; conditions: 1 μM
MHC II = MHC II assay by high-throughput flow cytometry (compound screening); type: cell-based
Description: as §2

G-CSF = test: Inhibition of EGF-mediated G-CSF secretion from tumor cells; type: cell-based
Protocol: as §2
Secretion of G-CSF was determined using ELISA kits according to the manufacturer's instructions (Life Technologies).

[3] = tested on: NF-kB promoter activity in LLC cells; test: NF-kB promoter activity, CMTM4-expressing NF-kB/SEAP reporter stable LLC cells; type: cell-based, murine
Description: as §2

[4] = tested on: NF-kB promoter activity in 4T1 cells; test: NF-kB promoter activity, CMTM4-expressing NF-kB/SEAP reporter stable 4T1 cells; type: cell-based, murine
Description: as §2

EGFR = EGFR levels in LLC CMTM4 KD cells after lipid raft depletion; type: cell-based, murine
Protocol: Flotillin-1 was used as a marker of lipid raft and vinculin was used as a maker of the non-raft fraction. […] FIGS. 8D and 8E show LLC CMTM4 KD cells were treated with MβCD and real-time PCR (8D) and western blot (8E) were performed to determine EGFR levels. *p<0.05. FIG. 8F show 293T cells were transfected with CMTM4 WT-mcherry (upper) or CMTM4 MT-mcherry (lower) with EGFR-EGFP and then, cells were treated with EGF for 1 hour. Representative confocal images are shown. FIG. 8G show RNAseq data showing Rab expression between control and CMTM4 KD LLC cells. FIGS. 8H and 8I show Rab expression in control and CMTM4 KD LLC cells were determined by qRT-PCR (H) and western blot (8I). FIGS. 8J, 8K, and 8L show 293T cells were transfected with CMTM4-EGFP and Rab4 (mCherry), Rab5 (mCherry), or Rab11 (mCherry), and then, cells were treated with EGF for 1 hour. Representative confocal images are shown. Pearson correlation coefficient (PCC) was measured from 20 individual cells. FIGS. 8M and 8N show EGFR-EGFR and Lamp-1 RFP were transfected to LLC control and CMTM4 KD cells. Confocal imaging was taken before (8M) and after (8N) treatment with EGF. Pearson correlation coefficient (PCC) was measured from 20 individual cells. *p<0.05, **p<0.01, ***P<0.001, ****P<0.0001. Scale bar: 3 μm. […]

| Molecule | CMTM4 (CMTM4 [1]) | p-Akt/p-mTOR (p-Akt/p-mTOR) | Glycolysis (glycolysis) | IL-6 (%) (IL-6) | MHC II (%) (MHC II) | other results |
| --- | --- | --- | --- | --- | --- | --- |
| CCOc1ccc(CO)cc1OC [4-Ethoxy-3-methoxybenzyl alcohol] | – | – | – | – | – | vinculin expression (vinculin): significantly increased |
| Cc1oc(C(C)(C)C)cc1C(=O)O [5-tert-butyl-2-methyl-3-furoic acid] | – | – | – | – | – | vinculin expression (vinculin): significantly increased |
| N#Cc1cn([C@@H]2O[C@H](CO)[C@@H](O)[C@H]2O)c2ncnc(N)c12 [C12H13N5O4, Toyocamycin, Toyocamycin] | No difference | Decrease | Inhibit | −3.717% | – | – |
| C[C@H]1O[C@H](O[C@H]2[C@H](O)[C@@H](O)[C@@H](O)[C@H](O)[C@@H]2O)[C@@H](N)C[C@@H]1NC(=N)C(=O)O [C14H25N3O9, Kasugamycin, Kasugamycin] | No difference | Decrease | Inhibit | 1.934% | 483.4% | G-CSF (%) (G-CSF): 66.41%; NF-kB (%)-LLC [3]: 46.83%; NF-kB (%)-4T1 [4]: 44.19% |
| COc1cc(-c2oc3cc(O)cc(O)c3c(=O)c2O)ccc1O [C16H12O7, Isorhamnctin, Isorhamnetin] | No difference | Decrease | Inhibit | −11.581% | – | – |
| CO[C@H]1Nc2c(ccc(C)c2O)C(=O)N2C=C(/C=C/C(N)=O)C[C@@H]12 [C17H19N3O4, Anthramycin methyl ether, Anthramycin methyl ether] | No difference | Decrease | Inhibit | −1.982% | – | – |
| CCCCC1CCCCCCc2[nH]c(/C=C3\N=C(c4ccc[nH]4)C=C3OC)cc21.Cl (centres unmarked) [C25H33N3O•ClH, Butylcycloheptylprodiginine Hydrochloride] | Decrease | – | Inhibit | −6.005% | 426.2% | G-CSF (%) (G-CSF; EGF-mediated secretion): 4.236%; NF-kB (%)-LLC ([3]; LLC reporter cells): 53.61%; NF-kB (%)-4T1 ([4]; 4T1 reporter cells): 45.8% |
| Cc1c2ccncc2c(C)c2c1[nH]c1ccccc12 [Ellipticine] | No difference | Decrease | Inhibit | −15.7288% | – | CMTM4 protein expression (CMTM4 [2]): decreased |
| COc1ccc2c3c([nH]c2c1)[C@H](C=C(C)C)N1C(=O)[C@@H]2CCCN2C(=O)[C@@H]1C3 [Fumitremorgin C] | No difference | Decrease | Inhibit | 10.85% | 5071% | G-CSF (%) (G-CSF): 6.939%; NF-kB (%)-LLC [3]: 42.89%; NF-kB (%)-4T1 [4]: 49.73% |
| methyl-beta-cyclodextrin [methyl-beta-cyclodextrin (MβCD)] | – | – | – | – | – | EGFR mRNA level (EGFR; real-time PCR): increased; EGFR protein level (EGFR; western blot): increased |

The next lines start with results.

| CMTM4 (CMTM4 [1]) | Molecule | p-Akt/p-mTOR (p-Akt/p-mTOR) | Glycolysis (glycolysis) | IL-6 (%) (IL-6) | MHC II (%) (MHC II) | other results |
| --- | --- | --- | --- | --- | --- | --- |
| No difference | C/C=C/C(=O)O [C4H6O2, CROTONIC ACID, CROTONIC ACID] | Decrease | Inhibit | 4.438% | – | – |
| No difference | O=C1NC(O)CCN1[C@@H]1O[C@H](CO)[C@@H](O)[C@H]1O (some centres unmarked) [C9H16N2O6, Tetrahydrouridine, Tetrahydrouridine] | Decrease | Inhibit | −0.1232% | – | CMTM4 protein expression (CMTM4 [2]): decreased; vinculin expression (vinculin): significantly increased |
| No difference | OC[C@H]1O[C@@H](n2cnc3c(O)ncnc32)[C@H](O)[C@@H]1O [C10H12N4O5, Inosine, Inosine] | – | Inhibit | −9.437% | – | CMTM4 protein expression (CMTM4 [2]): decreased |
| No difference | Cc1ccccc1OCC(O)CO (centres unmarked) [C10H14O3, Mephenesin, Mephenesin] | Decrease | Inhibit | 0.5625% | – | – |
| No difference | COc1cc(O)c2c(=O)c(O)c(-c3ccc(O)c(O)c3)oc2c1 [C16H12O7, Rhamnetin, Rhamnetin] | Decrease | Inhibit | −5.243% | – | – |
| No difference | O=C(/C=C/c1ccc(O)c(O)c1)O[C@H](Cc1ccc(O)c(O)c1)C(=O)O [C18H16O8, Rosmarinic Acid, Rosmarinic Acid] | Decrease | Inhibit | −0.1232% | – | – |
| No difference | CCc1cccc2c1c(O)c(C(=O)N(CC)c1ccccc1)c(=O)n2C [C21H22N2O3, Paquinimod, Paquinimod] | Decrease | Inhibit | −0.809% | 520.6% | G-CSF (%) (G-CSF; EGF-mediated secretion): 3.464%; NF-kB (%)-LLC ([3]; LLC reporter cells): 32.6%; NF-kB (%)-4T1 ([4]; 4T1 reporter cells): 46.87% |
| Decrease | CC[C@]12CCCN3CCc4c(n(c5ccccc45)[C@@](O)(C(=O)OC)C1)[C@@H]32 [C21H26N2O3, Vincamine, Vincamine] | No difference | Inhibit | 5.815% | – | – |
| No difference | C[C@@H]1C[C@@H]2CCCC(O)=C2C(=O)O1 [Compound C10H14O3, Ramulosin] | Decrease | Inhibit | −0.1232% | 340.5% | G-CSF (%) (G-CSF; EGF-mediated secretion): 3.85%; NF-kB (%)-LLC ([3]; LLC reporter cells): 34.35%; NF-kB (%)-4T1 ([4]; 4T1 reporter cells): 42.04% |
| Decrease | Lobophorin F [C54H78N2O17, Lobophorin F] | Decrease | Inhibit | −12.2043% | 360.5% | G-CSF (%) (G-CSF; EGF-mediated secretion): 1.147%; NF-kB (%)-LLC ([3]; LLC reporter cells): 37.64%; NF-kB (%)-4T1 ([4]; 4T1 reporter cells): 40.07% |
